Measured values as given in US11774442B2, “Molecule sensor systems” (priority 2016, dated 2023).

Assays:
PcaV = PcaV synthetic promoter/operator GFP reporter in E. coli; format: cell-based, Streptomyces coelicolor; conditions: E. coli harboring PcaV plasmid, grown in supplemented medium
Excerpt: As an example, Streptomyces coelicolor harbors an aTF, PcaV (SC06704), a member of the MarR family, which relieves repression on its operator in the presence of 3,4-dihydroxybenzoic acid. When the intergenic region between PcaV and Pcal was cloned into position to promote the expression of GFP on a plasmid which can be maintained in E. coli, no GFP expression was observed even though no known protein was present which could bind the operator site. […] Upon the introduction of the PcaV protein under a constitutive promoter, the GFP expression was suppressed. […] See FIG. 1, FIG. 2, FIG. 3, FIG. 21.

FapR = FapR GFP reporter in E coli; format: cell-based, Staphylococcus aureus; conditions: increasing concentrations
Excerpt: (§1) Staphylococcus aureus FapR responds to intracellular levels of malonyl-CoA. Cerulenin is an inhibitor of fatty acid biosynthesis and is known to increase the intracellular pool of malonyl-CoA at subtoxic concentrations.

E coli = test: Toxicity in FapR chassis dose response (OD600 and fluorescence channels); format: cell-based; conditions: highest concentration
Excerpt: as §1

FadR = format: cell-based, Vibrio cholerae; conditions: E coli; increased levels
TtgR = target: T1, TtgR (Pseudomonas putida, UniProt Q88N29); test: TtgR-GFP sensor-reporter system in E. coli, response to naringenin; format: cell-based; conditions: TtgR-binding synthetic operator promoter
T1 construct: Wild type of TtgR; expressed in transfected cells; host or cells: E. coli
T1 sequence (Q88N29 whole entry): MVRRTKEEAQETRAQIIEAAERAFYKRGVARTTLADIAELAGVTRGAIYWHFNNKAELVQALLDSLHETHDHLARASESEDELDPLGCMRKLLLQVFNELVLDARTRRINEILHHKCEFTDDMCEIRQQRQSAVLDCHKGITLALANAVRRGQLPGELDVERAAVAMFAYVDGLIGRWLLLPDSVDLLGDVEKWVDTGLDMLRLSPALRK
Excerpt: TtgR regulates the TtgABC efflux pump in Pseudomonas putida, and responds to antibiotics such as chloramphenicol (Teran, et al) as well as the flavanones such as naringenin (Raman, et al).
See FIG. 8, FIG. 9, FIG. 10, FIG. 11, FIG. 13.

O=C(O)c1ccc(O)c(O)c1 [3,4-dihydroxybenzoic acid]
GFP expression (PcaV): expression of GFP was observed

C/C=C/C/C=C/CCC(=O)[C@H]1O[C@H]1C(N)=O [cerulenin]
GFP reporter expression (FapR): increased expression of a GFP reporter | toxicity (E coli): toxicity at highest concentration

CCCCCCCC/C=C\CCCCCCCC(=O)O [oleic acid]
GFP reporter expression (FadR): driving expression of a GFP reporter

O=C1C[C@@H](c2ccc(O)cc2)Oc2cc(O)cc(O)c21 [naringenin]
GFP expression (TtgR): drive GFP expression
